Experiments:
Nodal protein [1] = assay: Western blot of Nodal protein (ProNodal) in acute lymphoblastic leukemia cell line REH; assay type: cell-based; conditions: REH cells, 72 hr treatment
Excerpt: Treatment of the cells for 72 hr with CVM-1125 reduced Nodal protein expression by 38%, while under the same treatment regimen the drug Ara-c reduced Nodal protein expression by 51%, Ws65 reduced Nodal protein by 90%, a combination of CVM-1125 plus WS65 reduced Nodal protein by 75% and Ara-c plus WS65 reduced Nodal protein by 69%.

Nodal protein [2] = assay: Western blot of Nodal protein expression in SK-MEL28 melanoma cells; assay type: cell-based, human; conditions: 72 hours treatment
Experimental: (§1) Human metastatic melanoma cell lines C8161, SK-MEL28 and A375SM-L1 and melanocytes were treated with anti-Nodal or anti-ABCA1 antibodies followed by secondary fluorescent antibodies. (A) Cells were viewed using a Zeiss Axioskop 2 microscope and photomicrographs taken comparing immunofluorescence staining of the melanoma cells versus melanocytes (negative control) and cells treated with secondary antibody only (antibody control; magnification 63×). All three aggressive melanoma cell lines express both Nodal and ABCA1 proteins. (B) Furthermore, whole cell protein lysates were prepared from the C8161, SK-MEL28 and A375SM-L1 cells and Western blot analysis verified the expression of both Nodal and ABCA1 proteins at their appropriate molecular weight equivalence. β-Actin protein was used to determine the equal loading of total protein per sample per lane on the Western blot.
(§2) (A) After 72 hr treatment with WS65, an anti-Nodal inhibitory antibody, there is a 94% reduction in Nodal protein expression and 55% reduction in the ABCA1 protein expression. […] Similar treatment with WS65 results in a 55% decrease in Nodal protein expression and 38% decrease in ABCA1 protein expression while treatment with both CVM-1125 and WS65 for 72 hr appears to synergistically reduce the expression of Nodal protein by 81% and ABCA1 protein by 99%.

ABCA1 protein = assay: Western blot of ABCA1 protein expression in SK-MEL28 melanoma cells; assay type: cell-based, human; conditions: 72 hours treatment
Experimental: as §1, §2

Nodal = Nodal in experimental TNBC models after doxorubicin; conditions: three experimental TNBC models expressing high levels of Nodal

SMILES: COc1ccc2[nH]c(-c3cccc(F)c3)cc(=O)c2c1O [CVM-1125]
- reduced Nodal protein expression (Nodal protein [1]): 38%
- decrease in Nodal protein expression (Nodal protein [2]): 19%
- decrease in ABCA1 protein expression (ABCA1 protein): 14%

SMILES: Nc1ccn([C@@H]2O[C@H](CO)[C@@H](O)[C@@H]2O)c(=O)n1 [Ara-c, reference compound]
- reduced Nodal protein expression (Nodal protein [1]): 51%

SMILES: COc1cccc2c1C(=O)c1c(O)c3c(c(O)c1C2=O)C[C@@](O)(C(=O)CO)C[C@@H]3O[C@H]1C[C@H](N)[C@H](O)[C@H](C)O1 [doxorubicin]
- effect on the Nodal target (Nodal): did not effectively diminish
